The nature of this data set: Cell viability after transfection (crystal violet). It counts as cell-based, human. The following applies: human, HeLa cells, following transfection with DNA formulations. The procedure: Cell viability. Cells were transfected as described in ‘Transfection Procedure’. Following 24 hours of transfection, the medium was removed and the cells were washed twice with PBS. Afterwards, the cells were dried for 1 hour at room temperature (to allow permeation of the nuclear stain). Crystal violet solution (50 μL of stock solution supplied by Sigma-Aldrich) was added to the cells. They were incubated for 15 min at room temperature. After washing with distilled water (5 times), the cells were dried for 30 min at room temperature. Then, MeOH (200 μL) was added and the suspension was incubated for 1 hour at room temperature. The relative amount of the crystal violet stain retained by viable cells was determined by the absorbance of the methanolic solution at 550 nm.

Molecules are shown by their SMILES. Where a SMILES comes first, the peptide text is derived from it.

In general, viability refers to a per cent measure of how many cells are alive, often set against a control. For `CC(C)C[C@H](NC(=O)[C@H](CCCCN)NC(=O)[C@H](CCCCNC(=O)[C@H](CC(C)C)NC(=O)[C@H](CCCCN)NC(=O)[C@H](CCCCNC(=O)[C@H](CC(C)C)NC(=O)[C@@H](N)CCCCN)NC(=O)[C@H](CC(C)C)NC(=O)[C@@H](N)CCCCN)NC(=O)[C@H](CC(C)C)NC(=O)[C@H](CCCCN)NC(=O)[C@H](CCCCNC(=O)[C@H](CC(C)C)NC(=O)[C@@H](N)CCCCN)NC(=O)[C@H](CC(C)C)NC(=O)[C@@H](N)CCCCN)C(=O)NCCCC[C@H](NC(=O)[C@H](CC(C)C)NC(=O)[C@H](CCCCN)NC(=O)[C@H](CCCCNC(=O)[C@H](CC(C)C)NC(=O)[C@H](CCCCN)NC(=O)[C@H](CCCCNC(=O)[C@H](CC(C)C)NC(=O)[C@@H](N)CCCCN)NC(=O)[C@H](CC(C)C)NC(=O)[C@@H](N)CCCCN)NC(=O)[C@H](CC(C)C)NC(=O)[C@H](CCCCN)NC(=O)[C@H](CCCCNC(=O)[C@H](CC(C)C)NC(=O)[C@@H](N)CCCCN)NC(=O)[C@H](CC(C)C)NC(=O)[C@@H](N)CCCCN)C(=O)NCC(=O)N[C@@H](CO)C(=O)N[C@@H](CS)C(N)=O` [G1,2,3-KL, (KL)8(KKL)4(KKL)2KGSC-NH2] (HELM PEPTIDE1{K.L.K.K.L.K.K.L.K.G.S.C.[am]}|PEPTIDE2{K.L}|PEPTIDE3{K.L.K.K.L.K.K.L}|PEPTIDE4{K.L}|PEPTIDE5{K.L.K.K.L}|PEPTIDE6{K.L}|PEPTIDE7{K.L.K.K.L}|PEPTIDE8{K.L}$PEPTIDE1,PEPTIDE2,3:R3-2:R2|PEPTIDE3,PEPTIDE4,3:R3-2:R2|PEPTIDE5,PEPTIDE6,3:R3-2:R2|PEPTIDE7,PEPTIDE8,3:R3-2:R2|PEPTIDE1,PEPTIDE7,6:R3-5:R2|PEPTIDE1,PEPTIDE3,9:R3-8:R2|PEPTIDE3,PEPTIDE5,6:R3-5:R2$$$V2.0), the viability at 24 h is ≥ 40%.

Values taken from US20240108753A1, “NUCLEIC ACID DELIVERY” (NUNTIUS THERAPEUTICS LIMITED, priority 2021, published 2024).
